Source: US20030108512A1, “Modified prostaglandin compounds and analogs thereof, compositions containing the same useful for the treatment of cancer” (priority 2001, published 2003)

Columns and labels:
[1] = tested on: human amelanotic melanoma cell line (LOX); assay: Collagen degradation inhibition assay (fluorescent-labelled Type I collagen matrix seeded with tumor cells); format: cell-based; settings: n=4, FIGS. 2-4; for IC50: LOX cells on labelled Type I collagen film; for dosage at which collagen degradation activity by LOX cells was inhibited: dosages tested about 10^−6 to 10^3 μM
Excerpt: The assay for screening antimetastatic agents is comprised of a collagenous matrix comprising collagenous components including but not limited to Type I or Type VI collagen or denatured collagen such as gelatin to form a scaffold-matrix. The scaffold matrix is subsequently coated with blood-borne components such as fibronectin, laminin, and fibrin for inducing adherence of the tumor cells and thereafter, labeled with quench fluorescent dyes. During performance of the assay, tumor cells that are present, adhere, ingest and invade the labeled scaffold-matrix resulting in the release of highly fluorescent peptides. Generally, tumor cells include a specific cell structure typically comprised of tentacles or arms (i.e. invadopodia) which secrete specific digestive enzymes including seprase, dipeptidyl peptidase IV (DPPIV), membrane Type-1 matrix metalloproteinases, and the like, to breakdown the collagen matrix. The fluorescence becomes visible only in the presence of these specific digestive enzymes produced by the tumor cells and increases in proportion to the activity of the digestive enzymes, thus providing a qualitative/quantitative measure of the invasiveness of the tumor cells. Other labeling methods including, but not limited to the use of, biotin, color dyes, and radioactive probes may also be used. As described herein, the assay utilizes a thin coating of collagen labeled with a fluorescent dye probe to form a scaffold collagen matrix, and tumor cells. The scaffold collagen matrix simulates the extracellular environment that is attacked by tumor cells during metastasis. The tumor cells attack the matrix by secreting proteolytic enzymes that break the collagen into peptide fragments. The peptide fragments release the fluorescent dye probe, and fluorescent light is emitted. The observed light intensity of the fluorescence correlates proportionally with the collagen degradation activity of the tumor cells. The tumor cells used in the test samples were generated from a human amelanotic melanoma cell line (LOX). A solution of a Type I collagen was prepared at a concentration of about 3.56 mg/ml. The collagen solution was used to form a coating of a monolayer of Type I collagen on a 96-well microtiter plate. […] Fluorescence readings were made using a microtiter plate fluorescence reader set at 485 nm/538 nm (Ex/Em). […] The collagen degradation activity of the LOX cells was detected through the cleavage and release of fluorescent collagen peptides from the labeled collagen matrix film as described above. A positive fluorescence signal, ΔF indicates the presence of collagen degradation activity. […]

LOX cells = assay: Apoptosis assay (Vybrant Apoptosis Assay Kit #4, YO-PRO); format: cell-based, human; settings: overnight, n=4, FIGS. 9-11
Method: An apoptosis assay marketed as Vybrant Apoptosis Assay Kit #4 from Molecular Probes, Inc., was obtained for the test.
The LOX cell cultures were incubated overnight.
The apoptosis assay was performed four times (n=4) for each test compound.

Compound | IC50 ([1]; Homo sapiens) [nM] | dosage at which collagen degradation activity by LOX cells was inhibited [1] | dosages giving a marked increase in the incidence of apoptosis (LOX cells) | IC50 [1] [nM] | dosages causing LOX cells to enter apoptosis (LOX cells)
CCCCCC(O)CC[C@@H]1C2Cc3cccc(OCC(=O)O)c3CC2C[C@H]1O (stereo partly drawn) [Compound V, reference compound] | 10 | about 2.5×10^−3 μM | over 100 μM |  | 
CNC(=O)[C@H](Cc1ccccc1)NC(=O)[C@H](CC(C)C)[C@H](CSc1cccs1)C(=O)NO [MMP inhibitor, BATIMASTAT®, reference compound] |  | over 10^−4 μM |  | 0.2 | over 2 μM
